How the values were obtained:
Assay in all cases: cells
[1] = system: IGR-1; type: functional, cell-based, Homo sapiens; conditions: Homo sapiens, IGR-1;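 note: growth inhibition of human IGR-1 cells, read out with a cell viability assay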
Description: SANGER: Inhibition of human IGR-1 cell growth in a cell viability assay.

[2] = system: EW-11; type: functional, cell-based, Homo sapiens; conditions: Homo sapiens, EW-11;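 note: growth inhibition of human EW-11 cells, measured with a cell viability assay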
Description: SANGER: Inhibition of human EW-11 cell growth in a cell viability assay.

[3] = system: NCI-H2122; type: functional, cell-based, Homo sapiens; conditions: Homo sapiens, NCI-H2122;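 note: growth inhibition of the cells, read out with a cell viability assay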
Description: SANGER: Inhibition of human NCI-H2122 cell growth in a cell viability assay.

[4] = system: NCI-N87; type: functional, cell-based, Homo sapiens; conditions: Homo sapiens, NCI-N87;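 note: growth inhibition of human NCI-N87 cells, read out with a cell viability assay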
Description: SANGER: Inhibition of human NCI-N87 cell growth in a cell viability assay.

[5] = system: LB996-RCC; type: functional, cell-based; conditions: Homo sapiens
Description: SANGER: Inhibition of human LB996-RCC cell growth in a cell viability assay.

[6] = system: SW1990; type: functional, cell-based, Homo sapiens; conditions: Homo sapiens, SW1990;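 note: cell growth inhibition determined with a viability assay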
Description: SANGER: Inhibition of human SW1990 cell growth in a cell viability assay.

[7] = system: LCLC-103H cell line; type: functional, cell-based, Homo sapiens; conditions: Homo sapiens, LCLC-103H
Description: SANGER: Inhibition of human LCLC-103H cell growth in a cell viability assay.

[8] = system: GMS-10; type: functional, cell-based, Homo sapiens; conditions: Homo sapiens, GMS-10;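 note: growth inhibition of GMS-10 cells, read out as cell viability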
Description: SANGER: Inhibition of human GMS-10 cell growth in a cell viability assay.

[9] = system: IST-MEL1; type: functional, cell-based, Homo sapiens; conditions: Homo sapiens, IST-MEL1;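 note: growth inhibition of the cell line, read out with a cell viability assay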
Description: SANGER: Inhibition of human IST-MEL1 cell growth in a cell viability assay.

[10] = system: SW684; type: functional, cell-based, Homo sapiens; conditions: Homo sapiens, SW684;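 note: growth inhibition of human SW684 cells, measured by a cell viability assay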
Description: SANGER: Inhibition of human SW684 cell growth in a cell viability assay.

[11] = system: SiHa; type: functional, cell-based, Homo sapiens; conditions: Homo sapiens, SiHa;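 note: Viability-based readout of growth inhibition in SiHa cells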
Description: SANGER: Inhibition of human SiHa cell growth in a cell viability assay.

[12] = system: NCI-H69; type: functional, cell-based; conditions: Homo sapiens;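 note: growth inhibition of the cell line, read out with a cell viability assay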
Description: SANGER: Inhibition of human NCI-H69 cell growth in a cell viability assay.

[13] = system: HCT-116; type: functional, cell-based, Homo sapiens; conditions: Homo sapiens, HCT-116
Description: SANGER: Inhibition of human HCT-116 cell growth in a cell viability assay.

[14] = system: KYSE-450; type: functional, cell-based; conditions: Homo sapiens;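 note: cell growth inhibition measured by a viability assay in human KYSE-450 cells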
Description: SANGER: Inhibition of human KYSE-450 cell growth in a cell viability assay.

[15] = system: COR-L88; type: functional, cell-based; conditions: Homo sapiens;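 note: growth inhibition of COR-L88 cells, read out with a cell viability assay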
Description: SANGER: Inhibition of human COR-L88 cell growth in a cell viability assay.

[16] = system: NCI-H810; type: functional, cell-based, Homo sapiens; conditions: Homo sapiens, NCI-H810;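 note: IC50 reflects inhibition of cancer cell line growth, read out with a cell viability assay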
Description: SANGER: Inhibition of human NCI-H810 cell growth in a cell viability assay.

[17] = system: Huh-7; type: functional, cell-based, Homo sapiens; conditions: Homo sapiens, Huh-7;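 note: HuH-7 cell growth inhibition, read out with a cell viability assay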
Description: SANGER: Inhibition of human HuH-7 cell growth in a cell viability assay.

[18] = system: GT3TKB; type: functional, cell-based, Homo sapiens; conditions: Homo sapiens, GT3TKB;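 note: growth inhibition of the cell line, read out with a cell viability assay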
Description: SANGER: Inhibition of human GT3TKB cell growth in a cell viability assay.

[19] = system: SF-126; type: functional, cell-based, Homo sapiens; conditions: Homo sapiens, SF-126;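 note: growth inhibition of human SF126 cells, read out with a cell viability assay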
Description: SANGER: Inhibition of human SF126 cell growth in a cell viability assay.

[20] = system: Lu-65; type: functional, cell-based; conditions: Homo sapiens;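 note: growth inhibition of Lu-65 cancer cells, read out by a cell viability assay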
Description: SANGER: Inhibition of human LU-65 cell growth in a cell viability assay.

[21] = system: LN-405; type: functional, cell-based, Homo sapiens; conditions: Homo sapiens, LN-405
Description: SANGER: Inhibition of human LN-405 cell growth in a cell viability assay.

[22] = system: C32; type: functional, cell-based, Homo sapiens; conditions: Homo sapiens, C32;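 note: cell viability assay, with IC50 reflecting inhibition of C32 cell growth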
Description: SANGER: Inhibition of human C32 cell growth in a cell viability assay.

[23] = system: DOK; type: functional, cell-based, Homo sapiens; conditions: Homo sapiens, DOK;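 note: cell viability assay read-out, values reflect inhibition of cell growth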
Description: SANGER: Inhibition of human DOK cell growth in a cell viability assay.

[24] = system: IST-MES1; type: functional, cell-based, Homo sapiens; conditions: Homo sapiens, IST-MES1;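 note: growth inhibition of IST-MES1 cells, measured with a cell viability assay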
Description: SANGER: Inhibition of human IST-MES1 cell growth in a cell viability assay.

[25] = system: VA-ES-BJ; type: functional, cell-based, Homo sapiens; conditions: Homo sapiens, VA-ES-BJ;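 note: growth inhibition of the VA-ES-BJ cell line, read out by a cell viability assay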
Description: SANGER: Inhibition of human VA-ES-BJ cell growth in a cell viability assay.

[26] = system: SW756; type: functional, cell-based, Homo sapiens; conditions: Homo sapiens, SW756;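 note: growth inhibition of human SW756 cells, read out with a cell viability assay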
Description: SANGER: Inhibition of human SW756 cell growth in a cell viability assay.

[27] = system: CHP-212; type: functional, cell-based, Homo sapiens; conditions: Homo sapiens, CHP-212
Description: SANGER: Inhibition of human CHP-212 cell growth in a cell viability assay.

[28] = system: BFTC-909; type: functional, cell-based, Homo sapiens; conditions: Homo sapiens, BFTC-909
Description: SANGER: Inhibition of human BFTC-909 cell growth in a cell viability assay.

[29] = system: KINGS-1; type: functional, cell-based, Homo sapiens; conditions: Homo sapiens, KINGS-1;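 note: cell viability assay measuring suppression of KINGS-1 cell growth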
Description: SANGER: Inhibition of human KINGS-1 cell growth in a cell viability assay.

[30] = system: Ca-Ski; type: functional, cell-based; conditions: Homo sapiens;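 note: cell viability assay measuring inhibition of Ca-Ski cell growth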
Description: SANGER: Inhibition of human Ca-Ski cell growth in a cell viability assay.

[31] = system: OMC-1; type: functional, cell-based, Homo sapiens; conditions: Homo sapiens, OMC-1;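 note: growth inhibition of the OMC-1 cell line, measured by a cell viability assay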
Description: SANGER: Inhibition of human OMC-1 cell growth in a cell viability assay.

[32] = system: OVCAR-3; type: functional, cell-based, Homo sapiens; conditions: Homo sapiens, OVCAR-3;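 note: growth inhibition of human OVCAR-3 cells, determined by a cell viability assay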
Description: SANGER: Inhibition of human OVCAR-3 cell growth in a cell viability assay.

[33] = system: HCC 2998; type: functional, cell-based, Homo sapiens; conditions: Homo sapiens, HCC 2998;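 note: growth inhibition of human HCC2998 cells, measured with a cell viability read-out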
Description: SANGER: Inhibition of human HCC2998 cell growth in a cell viability assay.

[34] = system: MLMA; type: functional, cell-based, Homo sapiens; conditions: Homo sapiens, MLMA;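 note: growth inhibition of MLMA cells (human), determined through a cell viability readout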
Description: SANGER: Inhibition of human MLMA cell growth in a cell viability assay.

[35] = system: NCI-H1793; type: functional, cell-based, Homo sapiens; conditions: Homo sapiens, NCI-H1793;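 note: cell growth inhibition, read out by a cell viability assay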
Description: SANGER: Inhibition of human NCI-H1793 cell growth in a cell viability assay.

[36] = system: DU-145; type: functional, cell-based, Homo sapiens; conditions: Homo sapiens, DU-145
Description: SANGER: Inhibition of human DU-145 cell growth in a cell viability assay.

[37] = system: QIMR-WIL; type: functional, cell-based; conditions: Homo sapiens;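 note: growth inhibition of QIMR-WIL cells, read out with a cell viability assay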
Description: SANGER: Inhibition of human QIMR-WIL cell growth in a cell viability assay.

[38] = system: DMS-273; type: functional, cell-based, Homo sapiens; conditions: Homo sapiens, DMS-273
Description: SANGER: Inhibition of human DMS-273 cell growth in a cell viability assay.

[39] = system: NCI-H2228; type: functional, cell-based, Homo sapiens; conditions: Homo sapiens, NCI-H2228;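 note: growth inhibition of human NCI-H2228 cells, read out by a cell viability assay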
Description: SANGER: Inhibition of human NCI-H2228 cell growth in a cell viability assay.

[40] = system: HMV-2 cell line; type: functional, cell-based, Homo sapiens; conditions: Homo sapiens, HMV-2;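 note: growth inhibition of HMV-II cells, read out with a cell viability assay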
Description: SANGER: Inhibition of human HMV-II cell growth in a cell viability assay.

[41] = system: NCI-H1792; type: functional, cell-based, Homo sapiens; conditions: Homo sapiens, NCI-H1792;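 note: growth inhibition of human NCI-H1792 cells, read out as cell viability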
Description: SANGER: Inhibition of human NCI-H1792 cell growth in a cell viability assay.

[42] = system: Ca9-22; type: functional, cell-based, Homo sapiens; conditions: Homo sapiens, Ca9-22;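 note: growth inhibition of Ca9-22 cells, read out with a cell viability assay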
Description: SANGER: Inhibition of human Ca9-22 cell growth in a cell viability assay.

[43] = system: NB69; type: functional, cell-based, Homo sapiens; conditions: Homo sapiens, NB69;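 note: growth inhibition of NB69 cells, determined by a cell viability assay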
Description: SANGER: Inhibition of human NB69 cell growth in a cell viability assay.

[44] = system: TGBC1TKB; type: functional, cell-based, Homo sapiens; conditions: Homo sapiens, TGBC1TKB;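 note: growth inhibition of TGBC1TKB cells, read out by a cell viability assay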
Description: SANGER: Inhibition of human TGBC1TKB cell growth in a cell viability assay.

[45] = system: MIA PaCa-2; type: functional, cell-based, Homo sapiens; conditions: Homo sapiens, MIA PaCa-2;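 note: growth inhibition of MIA PaCa-2 cells, read out with a cell viability assay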
Description: SANGER: Inhibition of human MIA-PaCa-2 cell growth in a cell viability assay.

[46] = system: NCI-H1395; type: functional, cell-based, Homo sapiens; conditions: Homo sapiens, NCI-H1395;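 note: cell viability assay read-out quantifying reduced proliferation of human NCI-H1395 cells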
Description: SANGER: Inhibition of human NCI-H1395 cell growth in a cell viability assay.

[47] = system: NCI-H596; type: functional, cell-based, Homo sapiens; conditions: Homo sapiens, NCI-H596;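 note: growth inhibition of NCI-H596 cells, read out with a cell viability assay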
Description: SANGER: Inhibition of human NCI-H596 cell growth in a cell viability assay.

[48] = system: 5637; type: functional, cell-based, Homo sapiens; conditions: Homo sapiens
Description: SANGER: Inhibition of human 5637 cell growth in a cell viability assay.

[49] = system: UACC-257; type: functional, cell-based, Homo sapiens; conditions: Homo sapiens, UACC-257
Description: SANGER: Inhibition of human UACC-257 cell growth in a cell viability assay.

[50] = system: GI-ME-N; type: functional, cell-based, Homo sapiens; conditions: Homo sapiens, GI-ME-N;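 note: growth inhibition of human GI-ME-N cells, read out with a cell viability assay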
Description: SANGER: Inhibition of human GI-ME-N cell growth in a cell viability assay.

CN(c1ncccc1CNc1nc(Nc2ccc3c(c2)CC(=O)N3)ncc1C(F)(F)F)S(C)(=O)=O [PF-00562271]
IC50 [1]: > 2560 nM | IC50 [2]: > 2560 nM | IC50 [3]: > 2560 nM | IC50 [4]: > 2560 nM | IC50 [5]: > 2560 nM | IC50 [6]: > 2560 nM | IC50 [7]: 1560 nM | IC50 [8]: > 2560 nM | IC50 [9]: > 2560 nM | IC50 [10]: > 2560 nM | IC50 [11]: > 2560 nM | IC50 [12]: > 2560 nM | IC50 [13]: > 2560 nM | IC50 [14]: > 2560 nM | IC50 [15]: > 2560 nM | IC50 [16]: 1110 nM | IC50 [17]: > 2560 nM | IC50 [18]: > 2560 nM | IC50 [19]: > 2560 nM | IC50 [20]: > 2560 nM | IC50 [21]: > 2560 nM | IC50 [22]: > 2560 nM | IC50 [23]: > 2560 nM | IC50 [24]: > 2560 nM | IC50 [25]: 1900 nM | IC50 [26]: > 2560 nM | IC50 [27]: 2100 nM | IC50 [28]: > 2560 nM | IC50 [29]: > 2560 nM | IC50 [30]: > 2560 nM | IC50 [31]: > 2560 nM | IC50 [32]: > 2560 nM | IC50 [33]: > 2560 nM | IC50 [34]: > 2560 nM | IC50 [35]: > 2560 nM | IC50 [36]: 2490 nM | IC50 [37]: > 2560 nM | IC50 [38]: > 2560 nM | IC50 [39]: > 2560 nM | IC50 [40]: > 2560 nM | IC50 [41]: > 2560 nM | IC50 [42]: > 2560 nM | IC50 [43]: > 2560 nM | IC50 [44]: > 2560 nM | IC50 [45]: > 2560 nM | IC50 [46]: > 2560 nM | IC50 [47]: > 2560 nM | IC50 [48]: > 2560 nM | IC50 [49]: > 2560 nM | IC50 [50]: > 2560 nM

C=CCNC1=C2C[C@@H](C)C[C@H](OC)[C@H](O)[C@@H](C)/C=C(\C)[C@H](OC(N)=O)[C@@H](OC)/C=C\C=C(/C)C(=O)NC(=CC1=O)C2=O [TANESPIMYCIN]
IC50 [1]: 790 nM | IC50 [2]: > 1000 nM | IC50 [3]: 97.4 nM | IC50 [4]: 25.9 nM | IC50 [5]: 336 nM | IC50 [6]: 122 nM | IC50 [7]: > 1000 nM | IC50 [8]: 67 nM | IC50 [9]: < 3.91 nM | IC50 [10]: 65.9 nM | IC50 [11]: 105 nM | IC50 [12]: 976 nM | IC50 [13]: 266 nM | IC50 [14]: 986 nM | IC50 [15]: 49.1 nM | IC50 [16]: > 1000 nM | IC50 [17]: > 1000 nM | IC50 [18]: 59.4 nM | IC50 [19]: > 1000 nM | IC50 [20]: 926 nM | IC50 [21]: 417 nM | IC50 [22]: 3.04 nM | IC50 [23]: 49 nM | IC50 [24]: > 1000 nM | IC50 [25]: 44.5 nM | IC50 [26]: 442 nM | IC50 [27]: 26.3 nM | IC50 [28]: 79.7 nM | IC50 [29]: 245 nM | IC50 [30]: 267 nM | IC50 [31]: 118 nM | IC50 [32]: 593 nM | IC50 [33]: 73.5 nM | IC50 [34]: > 1000 nM | IC50 [35]: 385 nM | IC50 [36]: > 1000 nM | IC50 [37]: 851 nM | IC50 [38]: 339 nM | IC50 [39]: 354 nM | IC50 [40]: 120 nM | IC50 [41]: 96.2 nM | IC50 [42]: > 1000 nM | IC50 [43]: 271 nM | IC50 [44]: 80.4 nM | IC50 [45]: 10.1 nM | IC50 [46]: 187 nM | IC50 [47]: > 1000 nM | IC50 [48]: 57.4 nM | IC50 [49]: 822 nM | IC50 [50]: 772 nM

Reference: ChEMBL document CHEMBL1201861, “Genomics of Drug Sensitity in Cancer screening data, Wellcome Trust Sanger Institute”
